Laboratory results taken from patent US20080269162A1, “Novel Medicaments for Anti-Retroviral Treatments” (priority 2006, published 2008).
Values joined by “and” are separate entries in the source; they are usually repeats but may differ in a detail not shown here. Equal values may be shown once.

Tests used:
Type in all cases: cell-based, HIV
NDK virus = assay: Number of syncitia in MT4 cell culture infected by NDK virus; design: key to Number of Syncitia in the Culture (wells), J3 / Number of Syncitia in the Culture (wells), J4 / Number of Syncitia in the Culture (wells), J5 / Number of Syncitia in the Culture (wells), J6: the absence of syncitia is indicated by a minus (−) sign; the (+), +, ++, ++T signs indicate an increasing number of syncitia in each well; the (+), +, ++, ++T signs indicate an increasing number of syncitia in each well; the (+), +, ++, ++T signs indicate an increasing number of syncitia in each well; the (+), +, ++, ++T signs indicate an increasing number of syncitia in each well; The indication “T” indicates the death of the cells; conditions: for Number of Syncitia in the Culture (wells), J3: day 3; for Number of Syncitia in the Culture (wells), J4: day 4; for Number of Syncitia in the Culture (wells), J5: day 5; for Number of Syncitia in the Culture (wells), J6: day 6
Description: Then infection of the cells was carried out by adding to each well, with the exception of those wells being used as control cells, 50 μL of previously titrated virus dilution.
After an additional hour of incubation, the plate was centrifuged and the supernatant containing the residual virus was discarded.
After 3 days of culture, the cells were diluted to half and the syncitia were observed using the inverse microscope from day 3 to day 7 after having been placed in suspension.
In the third case, the MT4 cell culture was preincubated for one hour at 37° C., then the cells were infected, the whole was subjected to incubation for one hour at 37° C., then to centrifugation with the elimination of the supernatant containing the virus that had not penetrated into the cells.
In each of the four types of experiments that have just been described, and as previously indicated, the cells were diluted to half after three days of culture and then the syncitia were observed using the inverted microscope from day 3 to day 7.
In the experiments described in greater detail hereinafter, the absence of syncitia is indicated by a minus (−) sign and the (+), +, ++, ++T signs indicate an increasing number of syncitia in each well.
The indication “T” indicates the death of the cells.

NDK (clade D) virus = assay: RT activity and cell number as a function of the moment of incorporation, NDK virus; conditions: 0.1 μM; for Number of cells, J7: day 7; for Number of cells, J3 / Quantity of RT measured, J3: day 3
From the text: The procedure was the same as that previously indicated with regard to the experiments carried out on MT4 cells; e.g., as in Example 2A.
The results of the measurements done on days 3 and 7 are summarized in Table D; RT activity is expressed in dpm/mL and cells are expressed in 10^6 cells/mL.

[1] = tested on: RTMC virus (clade B), resistant to AZT; assay: RT activity in supernatant and cell number of CEM cells infected by RTMC virus; conditions: 0.1 μM, RMTC viral dilution 5 · 10^−4
Description: The cells were counted every three days and the cultures diluted with a view of culturing 0.5*10^6 cells/mL; the RT activity assay was done following a protocol comprising:
measurement of the radioactivity of the DNA synthesized, said radioactivity being proportional to the quantity of tritiated thymidine incorporated into said synthesized DNA, which itself is proportional to RT activity and thus to the number of viruses produced by replication.
The contents (1 mL) of each well was centrifuged for 5 minutes at 1500 r.p.m. (Jouan GR 422 centrifuge) and then the culture supernatant obtained was ultracentrifuged at 4° C., 95000 r.p.m. (Beckman TL100 ultracentrifuge) in order to obtain the viral pellet.
The viral pellet was then placed in a test tube containing 10 μL of NTE buffer to which 0.1% of triton was added, which releases the viral enzymes, particularly RT; the tube was then vortexed, covered with parafilm and held for 10 minutes at 4° C. and then frozen at −20° C.
As many test tubes containing this reaction mixture were prepared as there were samples to be tested. […]
The amount of radioactivity that was measured is proportional to the RT activity present and, consequently, to the number of viruses produced by replication. […]

[2] = Continuous, before, during and after infection, 0.4 μm
[3] = Continously, before, during and after

3′-azidothymidine [AZT]
Number of Syncitia in the Culture (wells), J3 (NDK virus; After infection, 0.4 μm): −
Number of Syncitia in the Culture (wells), J4 (NDK virus; After infection, 0.4 μm): −
Number of Syncitia in the Culture (wells), J5 (NDK virus; After infection, 0.4 μm): −
Number of Syncitia in the Culture (wells), J6 (NDK virus; After infection): −
Number of Syncitia in the Culture (wells), J3 (NDK virus; Before infection, 0.4 μg/mL): −
Number of Syncitia in the Culture (wells), J4 (NDK virus; Before infection, 0.4 μg/mL): + and −
Number of Syncitia in the Culture (wells), J5 (NDK virus; Before infection, 0.4 μg/mL): ++ and −
Number of Syncitia in the Culture (wells), J6 (NDK virus; Before infection, 0.4 μg/mL): T and (+)
Number of Syncitia in the Culture (wells), J3 (NDK virus; [2]): −
Number of Syncitia in the Culture (wells), J4 (NDK virus; [2]): −
Number of Syncitia in the Culture (wells), J5 (NDK virus; [2]): −
Number of Syncitia in the Culture (wells), J6 (NDK virus; Continuous, before, during and after infection): −
Number of Syncitia in the Culture (wells), J3 (NDK virus; During infection, 0.4 μm): −
Number of Syncitia in the Culture (wells), J4 (NDK virus; During infection, 0.4 μm): −
Number of Syncitia in the Culture (wells), J5 (NDK virus; During infection, 0.4 μm): −
Number of Syncitia in the Culture (wells), J6 (NDK virus; During infection): −
Number of cells, J7 (NDK (clade D) virus): 3.2 10^6 Cells/mL and 1.6 10^6 Cells/mL
Number of cells, J3 (NDK (clade D) virus; After infection): 1.2 10^6 Cells/mL and 0.8 10^6 Cells/mL
Quantity of RT measured, J3 (NDK (clade D) virus; After infection): 1249 dpm/mL and 956 dpm/mL
Number of cells, J7 (NDK (clade D) virus; After infection): 1.8 10^6 Cells/mL and 3.2 10^6 Cells/mL
Number of cells, J3 (NDK (clade D) virus; Before infection): 1.4 10^6 Cells/mL and 0.8 10^6 Cells/mL
Number of cells, J7 (NDK (clade D) virus; Before infection): 2 10^6 Cells/mL and 3.8 10^6 Cells/mL
Number of cells, J3 (NDK (clade D) virus; [3]): 1.7 10^6 Cells/mL and 1.3 10^6 Cells/mL
Quantity of RT measured, J3 (NDK (clade D) virus; [3]): 399 dpm/mL and 750 dpm/mL
Number of cells, J7 (NDK (clade D) virus; [3]): 3.6 10^6 Cells/mL and 3.2 10^6 Cells/mL
Number of cells, J3 (NDK (clade D) virus; During dining room): 1.9 10^6 Cells/mL and 1.6 10^6 Cells/mL
Quantity of RT measured, J3 (NDK (clade D) virus; During dining room): 1529 dpm/mL and 956 dpm/mL
Number of cells per mL, D3 ([1]; day 3): 2.7 10^6 Cell/mL and 3.3 10^6 Cell/mL
Number of cells per mL, D10 ([1]; day 10): 0.4 10^6 Cell/mL and 0.8 10^6 Cell/mL
